Values of other authors, collected in PMC10458458, “Characterization of Anticancer Effects of the Analogs of DJ4, a Novel Selective Inhibitor of ROCK and MRCK Kinases” (Pharmaceuticals, 2023).

Columns and labels:
[1] = system: HeLa cells; design: method as in PMID 10779382; settings: >100 µM; cited from earlier work
[2] = system: astrocytes; design: method as in PMID 22929997; settings: 10 µM; cited from earlier work

Compound: C[C@@H](N)[C@H]1CC[C@H](C(=O)Nc2ccncc2)CC1 [Compound Y27632, Y27632]
- effect on cytokinesis [1]: impaired cytokinesis
- effect on proliferation and cell cycle [2]: promoted proliferation and progression of the cell cycle
